What is called IC50 is the midpoint of a concentration-inhibition curve.

SMILES strings stand for the structures.

One experiment deals with T1, hERG channel (Homo sapiens, UniProt Q12809).
T1 construct: expressed in transfected cells
Put plainly: hERG electrophysiology, automated whole-cell patch clamp (Patchliner). In kind it is cell-based. On the procedure:
This assay is used to evaluate the disclosed compounds' inhibition activities against the hERG channel.
CHO-K1 cells stably expressing hERG were grown in Ham's F-12 Medium with glutamine containing 10% heat-inactivated FBS, 1% penicillin/streptomycin, hygromycin (100 μg/ml) and G418 (100 μg/ml). Cells were grown in culture flasks at 37° C. in a 5% CO2-humidified incubator.
(§1) The cells were bathed in an extracellular solution containing 140 mM NaCl, 4 mM KCl, 2 mM CaCl2), 1 mM MgCl2, 5 mM glucose, and 10 mM HEPES; pH adjusted to 7.4 with NaOH; 295-305 mOsm. The internal solution contained 50 mM KCl, 10 mM NaCl, 60 mM KF, 20 mM EGTA, and 10 mM HEPES; pH adjusted to 7.2 with KOH; 285 mOsm. All compounds were dissolved in DMSO at 30 mM. Compound stock solutions were freshly diluted with external solution to concentrations of 30 nM, 100 nM, 300 nM, 1 μM, 3 μM, 10 μM, 30 μM and 100 μM. The highest content of DMSO (0.3%) was present in 100 μM.
The voltage protocol (see Table 3) was designed to simulate voltage changes during a cardiac action potential with a 300 ms depolarization to +20 mV (analogous to the plateau phase of the cardiac action potential), a repolarization for 300 ms to −50 mV (inducing a tail current) and a final step to the holding potential of −80 mV. The pulse frequency was 0.3 Hz. Control (compound-free) and compound pulse trains for each compound concentration applied contained 70 pulses.
(§2) Whole-cell current recordings and compound application were enabled by means of an automated patch clamp platform Patchliner (Nanion). EPC 10 patch clamp amplifier (HEKA) along with Patchmaster software (HEKA Elektronik Dr. Schulze GmbH) was used for data acquisition. Data were sampled at 10 kHz without filtering. Increasing compound concentrations were applied consecutively to the same cell without washouts in between.
AUC and PEAK values were obtained with Patchmaster (HEKA Elektronik Dr. Schulze GmbH). To determine IC50 the last single pulse in the pulse train corresponding to a given compound concentration was used. Obtained AUC and PEAK values in the presence of compound were normalized to control values in the absence of compound. Using Origin (OridinLab), IC50 was derived from data fit to Hill equation: Icompound/Icontrol=(100-A)/(1+([compound]/IC50)nH)+A, where IC50 is the concentration at which current inhibition is half-maximal, [compound] is the applied compound concentration, A is the fraction of current that is not blocked and nH is the Hill coefficient.
(In general: hERG is a cardiac potassium channel; its block is linked to QT prolongation.)

For another experiment, the target named is T2, Kv1.3 potassium channel (Homo sapiens, UniProt P22001).
T2 construct: expressed in transfected cells
T2 sequence (P22001 whole entry): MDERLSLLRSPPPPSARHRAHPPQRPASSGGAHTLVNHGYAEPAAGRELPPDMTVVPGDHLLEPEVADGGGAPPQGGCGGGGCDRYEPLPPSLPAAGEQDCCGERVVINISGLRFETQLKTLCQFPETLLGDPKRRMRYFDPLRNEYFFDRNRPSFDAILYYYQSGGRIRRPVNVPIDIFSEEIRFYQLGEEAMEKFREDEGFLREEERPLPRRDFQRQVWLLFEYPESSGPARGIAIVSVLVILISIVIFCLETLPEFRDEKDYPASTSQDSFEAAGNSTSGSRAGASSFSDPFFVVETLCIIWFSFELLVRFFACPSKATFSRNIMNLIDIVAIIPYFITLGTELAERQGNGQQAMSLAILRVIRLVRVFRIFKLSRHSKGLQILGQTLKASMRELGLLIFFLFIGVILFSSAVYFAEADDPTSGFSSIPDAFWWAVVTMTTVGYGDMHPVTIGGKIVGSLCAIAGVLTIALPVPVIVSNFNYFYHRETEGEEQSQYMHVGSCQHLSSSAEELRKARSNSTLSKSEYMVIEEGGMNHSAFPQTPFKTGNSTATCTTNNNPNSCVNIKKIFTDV
Put plainly: Kv1.3 potassium channel blocker activity, automated whole-cell patch clamp (Patchliner). In kind it is cell-based. As to the method: This assay is used to evaluate the disclosed compounds' activities as Kv1.3 potassium channel blockers.
CHO-K1 cells stably expressing Kv1.3 were grown in DMEM containing 10% heat-inactivated FBS, 1 mM sodium pyruvate, 2 mM L-glutamine and G418 (500 μg/ml). Cells were grown in culture flasks at 37° C. in a 5% CO2-humidified incubator.
as §1
The currents were evoked by applying 100 ms depolarizing pulses from −90 mV (holding potential) to +40 mV were applied with 0.1 Hz frequency. Control (compound-free) and compound pulse trains for each compound concentration applied contained 20 pulses.
10-second breaks were used between pulse trains (see Table 2 below).
as §2, with “(Nanion Technologies GmbH).” for “(Nanion).”, “(HEKA Elektronik Dr. Schulze GmbH)” for “(HEKA)”, “filtering. Passive leak currents were subtracted online using a P/4 procedure (HEKA Elektronik Dr. Schulze GmbH).” for “filtering.”, “between. Total compound incubation time before the next pulse train was not longer than 10 seconds. Peak current inhibition was observed during compound equilibration.” for “between.”
AUC and peak values were obtained with Patchmaster (HEKA Elektronik Dr. Schulze GmbH). To determine IC50, the last single pulse in the pulse train corresponding to a given compound concentration was used. Obtained AUC and peak values in the presence of compound were normalized to control values in the absence of compound. Using Origin (OridinLab), IC50 was derived from data fit to Hill equation: Icompound/Icontrol=(100−A)/(1+([compound]/IC50)nH)+A, where IC50 value is the concentration at which current inhibition is half-maximal, [compound] is the applied compound concentration, A is the fraction of current that is not blocked and nH is the Hill coefficient.

[1] abbreviates: hERG channel, whole-cell patch clamp.
Setting [2] is: Kv1.3 potassium channel, whole-cell patch clamp.
[3] abbreviates: CHO-K1 cells stably expressing hERG, +20 mV 300 ms, -50 mV 300 ms tail current, 0.3 Hz.
Where [4] appears, read: CHO-K1 cells stably expressing Kv1.3, 100 ms pulses from -90 mV to +40 mV, 0.1 Hz.

T1 sequence (Q12809 whole entry): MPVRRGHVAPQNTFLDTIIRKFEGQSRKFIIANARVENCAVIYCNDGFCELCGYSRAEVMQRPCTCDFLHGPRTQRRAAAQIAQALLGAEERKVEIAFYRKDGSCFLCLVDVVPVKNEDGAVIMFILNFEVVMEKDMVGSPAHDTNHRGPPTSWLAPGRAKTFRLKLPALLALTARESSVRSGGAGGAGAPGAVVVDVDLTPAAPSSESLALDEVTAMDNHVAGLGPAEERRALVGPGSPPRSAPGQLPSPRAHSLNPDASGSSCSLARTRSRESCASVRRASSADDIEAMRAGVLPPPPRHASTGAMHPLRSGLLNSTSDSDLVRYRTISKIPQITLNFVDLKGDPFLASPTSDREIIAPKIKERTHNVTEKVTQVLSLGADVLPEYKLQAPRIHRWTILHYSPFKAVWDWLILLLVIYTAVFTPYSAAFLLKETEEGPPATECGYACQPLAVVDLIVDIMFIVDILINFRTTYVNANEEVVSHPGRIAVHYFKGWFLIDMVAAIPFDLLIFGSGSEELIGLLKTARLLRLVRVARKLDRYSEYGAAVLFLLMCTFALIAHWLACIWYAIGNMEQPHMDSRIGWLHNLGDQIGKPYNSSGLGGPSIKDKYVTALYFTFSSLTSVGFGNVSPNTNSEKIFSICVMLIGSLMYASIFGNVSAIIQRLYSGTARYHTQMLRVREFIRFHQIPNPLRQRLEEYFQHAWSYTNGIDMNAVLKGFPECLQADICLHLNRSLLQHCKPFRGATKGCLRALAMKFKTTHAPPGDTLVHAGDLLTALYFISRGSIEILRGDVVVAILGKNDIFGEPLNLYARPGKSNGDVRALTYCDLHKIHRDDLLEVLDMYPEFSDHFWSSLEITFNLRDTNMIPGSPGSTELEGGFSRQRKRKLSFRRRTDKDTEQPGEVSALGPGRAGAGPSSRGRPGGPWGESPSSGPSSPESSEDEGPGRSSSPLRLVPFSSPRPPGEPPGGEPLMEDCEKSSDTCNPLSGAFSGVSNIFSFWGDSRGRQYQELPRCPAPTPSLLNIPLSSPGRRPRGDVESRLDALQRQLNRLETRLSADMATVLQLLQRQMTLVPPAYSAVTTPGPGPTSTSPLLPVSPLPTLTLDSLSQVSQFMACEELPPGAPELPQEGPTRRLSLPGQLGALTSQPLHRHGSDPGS

For `O=C1CN(CCN2CCOCC2)C[C@@H]2C[C@H](c3c(O)ccc(Cl)c3Cl)CN12` [Compound 121, (7R,8aS)-7-(2,3-dichloro-6-hydroxyphenyl)-2-[2-(morpholin-4-yl)ethyl]-hexahydropyrrolo [1,2-a]pyrazin-4-one], the 50% inhibitory concentration (IC50) on hERG channel (setting [1]) is less than 30 µM; against Kv1.3 potassium channel (setting [2]), less than 1 µM.
For the compound `O=C([C@H](O)CO)N1CC(=O)N2C[C@@H](c3c(O)ccc(Cl)c3Cl)C[C@H]2C1` [Compound 42, (7R,8aS)-7-(2,3-dichloro-6-hydroxyphenyl)-2-((R)-2,3-dihydroxypropanoyl) hexahydropyrrolo[1,2-a]pyrazin-4(1H)-one], the IC50 is more than 30 µM against hERG channel (setting [3]) and less than 1 µM against Kv1.3 potassium channel (setting [4]).
On to `O=C(NCCO)N1CC(=O)N2C[C@@H](c3c(O)ccc(Cl)c3Cl)C[C@H]2C1` [Compound 104, (7R,8aS)-7-(2,3-dichloro-6-hydroxyphenyl)-N-(2-hydroxyethyl)-4-oxo-hexahydropyrro[1,2-a]pyrazine-2-carboxamide], for which the IC50 against hERG channel (setting [1]) was more than 30 µM; on Kv1.3 potassium channel (setting [2]), less than 1 µM.
For the compound `O=C1[C@@H](CO)OC[C@@H]2C[C@H](c3c(O)ccc(Cl)c3Cl)CN12` [Compound 50, (3R,7R,8aS)-7-(2,3-dichloro-6-hydroxyphenyl)-3-(hydroxymethyl)-hexahydropyrrolo[2,1-c][1,4]oxazin-4-one], the figures for the IC50 against hERG channel (setting [3]) and against Kv1.3 potassium channel (setting [4]) were more than 30 µM and less than 1 µM, respectively.
Consider `O=C1CN(C(CO)CO)C[C@@H]2C[C@H](c3c(O)ccc(Cl)c3Cl)CCN12` [Compound 122, (8R,9aS)-8-(2,3-dichloro-6-hydroxyphenyl)-2-(1,3-dihydroxypropan-2-yl)-hexahydro-1H-pyrido[1,2-a] pyrazin-4-one], for which the IC50 on hERG channel (setting [1]) was more than 30 µM; against Kv1.3 potassium channel (setting [2]) it was less than 1 µM.
For `C[C@@H](O)[C@@H](CO)N1CC(=O)N2C[C@@H](c3c(O)ccc(Cl)c3Cl)C[C@H]2C1` (relative stereo) [Compound 166, (7R,8aS)-7-(2,3-dichloro-6-hydroxyphenyl)-2-[(2R,3R)-rel-1,3-dihydroxybutan-2-yl]-hexahydropyrrolo[1,2-a]pyrazin-4-one], the 50% inhibitory concentration (IC50) on hERG channel (setting [1]) was more than 30 µM; on Kv1.3 potassium channel (setting [2]), less than 1 µM.
With `O=C1CN(c2ncn[nH]2)C[C@@H]2C[C@H](c3c(O)ccc(Cl)c3Cl)CN12` [Compound 175, (7R,8aS)-7-(2,3-dichloro-6-hydroxyphenyl)-2-(1H-1,2,4-triazol-5-yl)hexahydropyrrolo[1,2-a]pyrazin-4(1H)-one], the IC50 is more than 30 µM against hERG channel (setting [1]) and less than 1 µM against Kv1.3 potassium channel (setting [2]).
For `C[C@H]1[C@@H]2C[C@H](c3c(O)ccc(Cl)c3Cl)CCN2C(=O)CN1C(=O)CO` (single isomer, unassigned; isomer 2) [Compound 84], in that order: more than 30 µM and less than 1 µM.
Regarding `O=C1O[C@@H]([C@H](O)CO)[C@@H]2C[C@H](c3c(O)ccc(Cl)c3Cl)CN12` (single isomer, unassigned) [Compound 261], the IC50 on hERG channel (setting [1]) is more than 30 µM; on Kv1.3 potassium channel (setting [2]), less than 1 µM.
In the case of `O=C1O[C@H](CO)C[C@@H]2C[C@H](c3c(O)ccc(Cl)c3Cl)CN12` (single isomer, unassigned) [Compound 268], the IC50 at hERG channel (setting [1]) was more than 30 µM; against Kv1.3 potassium channel (setting [2]), less than 1 µM.
`O=C1CN(C2CC(O)C2)C[C@@H]2C[C@H](c3c(O)ccc(Cl)c3Cl)CN12` (stereo partly drawn) [Compound 123, (7R,8aS)-7-(2,3-dichloro-6-hydroxyphenyl)-2-(3-hydroxycyclobutyl)-hexahydropyrrolo[1,2-a]pyrazin-4-one]: the results for the concentration for half-maximal inhibition (IC50) against hERG channel (setting [1]) and against Kv1.3 potassium channel (setting [2]) were more than 30 µM and less than 1 µM, respectively.
Turning to `O=C(CC(F)F)N1CC(=O)N2C[C@@H](c3c(O)ccc(Cl)c3Cl)C[C@H]2C1` [Compound 68, (7R,8aS)-7-(2,3-dichloro-6-hydroxyphenyl)-2-(3,3-difluoropropanoyl)-hexahydropyrrolo [1,2-a]pyrazin-4-one], the IC50 at hERG channel (setting [1]) is more than 30 µM; against Kv1.3 potassium channel (setting [2]) it was less than 1 µM.
As for `N[C@@H]1CC(=O)N2C[C@@H](c3c(O)ccc(Cl)c3Cl)C[C@H]2C1` (single isomer, unassigned) [Compound 190], the 50% inhibitory concentration (IC50) against hERG channel (setting [1]) was more than 30 µM; at Kv1.3 potassium channel (setting [2]), less than 1 µM.

Source of the values: patent US20230049231A1 (priority 2019, published 2023).
